Assay results as given in patent publication EP0248999A2, “Uses of enprostil-type prostaglandins in regulating fat and carbohydrate metabolism” (SYNTEX (U.S.A.) INC., priority 1986, dated 1987).
Read-outs that look alike come from different tables or passages of the source.

Legend:
[1] = tested on: serum cholesterol; assay: Example 1: oral enprostil, serum cholesterol in patients with high cholesterol baseline; format: in vivo, human; details: five weeks
Protocol: (§1) The following non-limiting examples will further clarify the nature of this invention. In these examples, serum lipids and cholesterol were measured by standard methods ("Manual of Laboratory Operations, Lipid Research Clinic Program, Lipid and Lipoprotein Analysis", DHEW Publication No. (NIH) 75-628 (1974)); serum insulin, GIP, and C-peptide were measured by radioimmunoassay; and apoproteins were measured by radial immunodiffusion.
A group of 20 patients with high cholesterol baseline were orally given 70 µg enprostil twice daily. […] The median change for the group was 16 percent reduction, with 60 percent of the patients tested showing a significant reduction in serum cholesterol.
A second group of 16 patients with a high cholesterol baseline were given […] enprostil twice daily.
A third group of 13 individuals were given a placebo. […] The median change was a 2 percent increase in cholesterol.

[2] = tested on: serum cholesterol levels; assay: Example 2, Table 1: oral enprostil BID in hypercholesterolemic patients versus placebo; format: in vivo, human
Protocol: as §1

[3] = tested on: serum cholesterol levels; assay: Example 2, Table 2: 9-day placebo-controlled cross-over study in normocholesterolemic subjects, serum lipids and apoproteins; format: in vivo, human; set-up: Mean reduction of cholesterol / Mean reduction of LDL-cholesterol / Mean reduction of HDL-cholesterol / Mean reduction of apoprotein-A / Mean reduction of apoprotein-B: concentration or dose not given beside the values; details: 9-day cross-over
Protocol: as §1
To further clarify the nature of these changes in a prospective manner, normal subjects were dosed with enprostil for periods ranging from 8 days up to 44 days in duration.
In a 9-day placebo-controlled cross-over study, with each subject serving as their own control, the mean reduction in cholesterol, LDL-cholesterol, and HDL-cholesterol are shown in Table 2.
These findings are surprising since the subjects in this study were normocholesterolemic at baseline (that is serum cholesterol under 250 mg/dl) and were on a free diet with no attempt to regulate dietary cholesterol intake.

[4] = tested on: serum cholesterol levels; assay: Example 3: 44-day placebo-controlled dosing study, total and LDL-cholesterol; format: in vivo, human
Protocol: as §1
In a 44-day dosing study, 20 subjects participated in a placebo-controlled trial. Ten subjects received enprostil and the remainder received placebo. Data were obtained from 9 of the 10 subjects who received enprostil. […] This subject was normocholesterolemic at baseline and no dietary manipulation was attempted.

[5] = tested on: serum GIP levels; assay: Example 4: double-blind cross-over meal study, serum GIP; format: in vivo, human; details: 70p.g enprostil orally 30 minutes before meal; placebo four-fold increase
Protocol: as §1
Serum GIP levels are known to increase after meals.
Groups of 10 subjects participated in a double-blind, cross-over study. Either a placebo or 70p.g enprostil was orally given 30 minutes before meal time and levels of GIP were measured.

[6] = tested on: serum insulin and glucose levels; assay: Example 5: double-blind cross-over meal study, serum insulin and glucose; format: in vivo, human; details: enprostil orally 30 minutes before meal
Protocol: as §1
A group of 10 subjects participated in a double-blind cross-over study. Either a placebo or enprostil was orally given 30 minutes before meal time and levels of insulin and glucose were measured after the meal.

[7] = tested on: serum insulin and glucose levels; assay: Example 6: eight-day cross-over study with standard breakfast, serum glucose, insulin and GIP; format: in vivo, human; details: 70 µg orally
Protocol: as §1
Eight healthy male subjects received either […] enprostil per day or placebo for eight days followed by a washout period of one week and a subsequent second eight-day administration during which they received the opposite drug regime.
On day 1 and day 8 of each study period the subjects reported to the clinical studies unit fasting and were administered 70 µg of enprostil orally in a glass of water. Thirty minutes later they were administered a standard breakfast and blood samples were drawn at -30 (just prior to enprostil administration), O (at the time of enprostil administration), 15, 30, 60, 90, 120 and 180 minutes.

[8] = tested on: serum xylose; assay: Example 7: oral d-xylose absorption test in 10-day cross-over study; format: in vivo, human; details: 5 g d-xylose orally
Protocol: (§2) 10 normal subjects participated in a 10-day placebo-controlled cross-over study, receiving either placebo or 70 µg enprostil per day. On day 1 and day 9 of each study phase they orally received 5 g of d-xylose, a sugar not normally metabolized in man. Blood measurements for serum xylose were made at -30, 0, +30, 60, 120, 180, 240, and 300 minutes following ingestion.of xylose. On day 2 and day 10 of each study phase, the subjects received a 25 g intravenous glucose tolerance test, 30 minutes following enprostil administration.

[9] = tested on: serum glucose; assay: Example 7: 25 g intravenous glucose tolerance test; format: in vivo, human; details: 25 g intravenous glucose 30 minutes after enprostil, day 2 and day 10
Protocol: as §2

[10] = tested on: serum glucose levels; assay: Example 8 (headed 'Example'): 30-day dosing study with standard breakfast, serum glucose; format: in vivo, human; details: enprostil 35 pg BID
Protocol: 20 subjects participated in a study lasting up to 44 days. On day -8, all 20 subjects received a placebo capsule, followed 30 minutes later by a standard breakfast with serial blood measurements. Eight days later all 20 subjects were randomized to either enprostil 35 pg BID or placebo, and continued dosing for a period of 30 days. On days 1, 8, and 30, they were given enprostil followed 30 minutes later by a standard breakfast with serial blood measurements.

[11] = tested on: serum triglycerides; assay: Example 9: double-blind cross-over fatty meal study, serum and chylomicron triglycerides; format: in vivo, human
Protocol: as §1
(§3) Six male subjects participated in a double-blind cross-over study. Either placebo or enprostil […] was orally given 30 minutes before a fatty meal consisting of approximately 600 Kcal, 90% of which was fat. Following the meal, serum triglycerides and total serum cholesterol were measured at serial time points before and after removal of serum chylomicrons by ultracentrifugation. Serum HDL-cholesterol was measured only before chylomicron removal.

[12] = tested on: insulin and GIP; assay: Example 9: fatty meal study, insulin and GIP; format: in vivo, human
Protocol: as §1, §3

[13] = tested on: atherosclerotic plaque; assay: Example 10: cholesterol-fed rabbit, aortic atherosclerotic plaque; format: in vivo, New Zealand white rabbits; details: Group B: 2% cholesterol diet, enprostil 10 pg/Kg/day constant oral infusion, 56 days; vehicle Group A 25%
Protocol: Fortyfive New Zealand white rabbits were allocated to three groups, A, B, and C, each group consisting of 15 rabbits. Group A was fed a 2% cholesterol diet and received vehicle administered by constant oral infusion at 62 ul/day using an Alza minipump. Group B was also fed a 2% cholesterol diet but, via the minipump, received enprostil at an infusion rate of 10 pg/Kg/day. Group C was fed a normal diet and received no treatment.
At the end of 56 days of the above treatments, rabbits were sacrificed and their aortic tissue was subjected to pathologic examination. In Group C, the placebo control group, the percent of aortic area covered by atherosclerotic plaque was under 5%. In the rabbits from Group A, which had received the high cholesterol diet with vehicle infusion, 25% of the aortic area was covered with atherosclerotic plaque. These findings contrasted with those for the Group B rabbits, which in addition to the high cholesterol diet had received enprostil by continuous infusion . In these animals, only 10% of aortic tissue was covered with atheromatous plaque. This finding is statistically significant from the Group A rabbits.

[14] = Animal antisecretory assays; format: in vivo; details: compared with enprostil (isomer mixture)
[15] = tested on: insulin levels; details: cited from earlier work
[16] = of nine evaluable subjects receiving enprostil
[17] = one subject, baseline to day 44
[18] = enprostil 35 pg before fatty meal
[19] = administered by tube to the duodenum

Structure (SMILES): COC(=O)CCC=C=CCC1C(=O)CC(O)C1C=CC(O)COc1ccccc1 (racemic) [enprostil, methyl (±)-7-[(1R*,2R*,3R*)-3-hydroxy-2-[(E)-(3R*)-3-hydroxy-4-phenoxy-l-butenyl]-5-oxocyclopentyl]-4,5-heptadienoate]
- median change (reduction) of serum cholesterol ([1]; 35 pg enprostil twice daily, 16 patients with high cholesterol baseline): eleven
- number of patients showing greater than 10 percent serum cholesterol reduction ([1]; 35 pg twice daily, 16 patients): eight
- number of patients showing greater than 25 percent reduction ([1]; 35 pg twice daily, 16 patients): one
- number of patients showing no change in serum cholesterol ([1]; 35 pg twice daily, 16 patients): seven
- patients showing serum cholesterol reduction ([1]; 35 pg twice daily, 16 patients): 56%
- median change (reduction) of serum cholesterol ([1]; 70 µg enprostil orally twice daily, 20 patients with high cholesterol baseline): 16%
- number of patients showing greater than 10 percent reduction ([1]; 70 µg twice daily, 20 patients): eleven
- number of patients showing greater than 25 percent reduction ([1]; 70 µg twice daily, 20 patients): one
- number of patients showing no change in serum cholesterol ([1]; 70 µg twice daily, 20 patients): eight
- patients tested showing a significant reduction in serum cholesterol ([1]; 70 µg twice daily, 20 patients): 60%
- Cholesterol % decrease (combined 2-12 week of dosing) ([2]; 7 µg BID, 9 hypercholesterolemic subjects): 67%
- Median % change (cholesterol) ([2]; 7 µg BID, 9 subjects): -11%
- Cholesterol % decrease (combined 2-12 week of dosing) ([2]; 35 µg BID, 28 hypercholesterolemic subjects): 64%
- Median % change (cholesterol) ([2]; 35 µg BID, 28 subjects): -13%
- Cholesterol % decrease (combined 2-12 week of dosing) ([2]; 70 µg BID, 28 hypercholesterolemic subjects): 64%
- Median % change (cholesterol) ([2]; 70 µg BID, 28 subjects): -17%
- change in total triglycerides [3]: essentially no change
- Mean reduction of HDL-cholesterol ([3]; free diet): -9.2%
- Mean reduction of LDL-cholesterol ([3]; free diet): -21.0%
- Mean reduction of apoprotein-A ([3]; free diet): -1.8%
- Mean reduction of apoprotein-B ([3]; free diet): -16.0%
- Mean reduction of cholesterol ([3]; free diet): -15.0%
- individuals with reduction in total and LDL-cholesterol throughout the entire 44-day period [4, 16]: Three
- subjects showing a reduction of total cholesterol by 16 days [4, 16]: Six
- total serum cholesterol at day 44 ([4]; one subject (most dramatic example), mean baseline 208 mg/dl, normocholesterolemic, no dietary manipulation): 123 mg/dL
- LDL-cholesterol at day 44 ([4]; one subject, baseline 140 mg/dl): 75 mg/dL
- reduction in LDL-cholesterol [4, 17]: 46%
- reduction of total serum cholesterol [4, 17]: 43%
- increase in serum GIP 60 minutes after the meal stimulus [5]: no increase
- raise in glucose levels after the meal [6]: no statistically or clinically significant raise
- increase of insulin levels after the meal ([6]; placebo five-fold): two-fold
- serum GIP ([7]; both study days): essentially complete inhibition
- serum insulin concentrations for each time point ([7]; day 1 and 8): marked reduction
- reduction of area under the serum glucose by time curve compared to the placebo phase ([7]; day 1 and day 8): 15-20%
- peak serum xylose levels ([8]; 70 µg enprostil per day, days 1 and 9): marked suppression and delay
- reduction in the amount of xylose excreted over 5 hours ([8]; 70 µg per day): 30%
- amount of xylose excreted over 5 hours ([8]; 70 µg per day, placebo 1.8g): 1.3 g
- serum glucose by time curves following intravenous glucose administration, enprostil versus placebo [9]: no marked differences
- peak blood glucose levels versus placebo ([10]; standard breakfast): substantially reduced
- time of appearance of peak blood glucose levels ([10]; standard breakfast 30 minutes after dose, placebo approximately 60 minutes): ~90 min
- maximal postprandial total serum triglycerides before chylomicron removal ([11]; enprostil 35 pg 30 minutes before fatty meal, at 360 minutes, placebo 160 mg/dl at 120 minutes): 105 mg/dL
- appearance of postprandial serum [11, 18]: remained clear
- chylomicron triglyceride content (in words) [11, 18]: virtually complete suppression
- chylomicron-associated triglyceridemia through 120 minutes [11, 18]: complete absence
- fasting baseline total serum triglycerides before chylomicron removal ([11]; enprostil 35 pg phase, mean, placebo 86 mg/dl): 83 mg/dL
- fasting serum triglycerides after chylomicron removal ([11]; enprostil 35 pg phase, placebo 82 mg/dl): 80 mg/dL
- maximal postprandial serum triglycerides after chylomicron removal ([11]; enprostil 35 pg, 360 minutes, placebo 115 mg/dl (180 minutes)): 89 mg/dL
- mean rise of chylomicron triglyceride content over fasting level ([11]; enprostil 35 pg, at 360 minutes after fatty meal, placebo 46 mg/dl (120 minutes)): 16 mg/dL
- insulin levels following the fatty meal ([12]; enprostil 35 pg, at 30, 60, and 90 minutes): significantly lower
- GIP levels following the fatty meal ([12]; enprostil 35 µg, up to 360 minutes, p<0.05): virtually completely suppressed
- aortic tissue covered with atheromatous plaque [13]: 10%

Structure (SMILES): COC(=O)CCC=C=CC[C@H]1C(=O)C[C@@H](O)[C@@H]1/C=C/[C@@H](O)COc1ccccc1 (single isomer, unassigned) [R allenic isomer of enprostil]
- potency in animal antisecretory assays [14]: increased potency
- toxicity in animal antisecretory assays [14]: lower toxicity

Structure (SMILES): CCCCC[C@](C)(O)/C=C/[C@H]1[C@H](O)CC(=O)[C@@H]1C/C=C\CCCC(=O)OCC [(15S),15-methyl-PGE2 ethyl ester]
- glucose levels ([15]; intravenous administration): without affecting
- insulin levels ([15]; intravenous administration): lowered

Structure (SMILES): CCCCC[C@](C)(O)/C=C/[C@H]1[C@H](O)CC(=O)[C@@H]1C/C=C\CCCC(=O)OC [(15S),15-methyl-PGE2 methyl ester]
- insulin levels [15, 19]: lowered
- serum glucose levels [15, 19]: no change
- time to peak serum glucose levels ([15]; intraduodenally or intravenously): no change
